Source: patent US11022556B2, “Tetrazolium compound for detecting microorganisms, reagent for detecting microorganisms and method for detecting microorganisms” (JNC CORPORATION, priority 2010, dated 2021)

What was measured:
[1] = absorption wavelength and colour of the formazan dye formed from the tetrazolium compound; type: physicochemical; conditions: formazan dye produced by reduction of the tetrazolium compound
[2] = tested on: general viable cells; assay: comparative test for detecting microorganisms on sheet media for detecting general viable cells; type: cell-based; conditions: food samples (meat, precut vegetables, delicatessens); sheet medium with 0.03 g/m^3 reagent; 35° C.; 24 hours incubation vs 48 hours for 2,3,5-triphenyltetrazolium chloride
Experimental: Next, the results obtained by a comparative test for detecting microorganisms using the chromogenic reagent of Example 1 and the chromogenic reagent of Comparative Example are described below. The comparative test was performed as follows. First, sheet media for detecting general viable cells containing as the chromogenic reagent 0.03 g/m^3 each of tetrazolium compound A of Example 1 and 2,3,5-triphenyltetrazolium chloride of Comparative Example, respectively, were prepared. The sheet media for general viable cells were the same except that the chromogenic reagents were different.
Then, 10 g of either one of meat, precut vegetables, delicatessens, etc. was put into a sterilized bag and 100 ml of sterile saline was added thereto. The mixture was homogenized with a stomacher. […]
The sheet medium of Example 1 for detecting general viable cells containing the chromogenic reagent was incubated for 24 hours and the sheet medium for detecting general viable cells containing the chromogenic reagent for comparison was incubated for 48 hours, respectively, both at 35° C. The viable cell counts were compared between the count of viable cells visually detected by the chromogenic reagent of Example 1 and the count of viable cells detected by the chromogenic reagent of Comparative Example. […]

Row | Structure (SMILES) | colour developed by the formazan dye [1] | peak of absorption wavelength of the formazan dye formed [1] | number of colonies (viable cell count) visually detected, compared with the chromogenic reagent of Comparative Example [2]
1 | COc1ccccc1-n1nc(-c2ccccc2)n[n+]1-c1ccc([N+](=O)[O-])cc1.[Cl-] [tetrazolium compound A, 2-(2-Methoxyphenyl)-3-(4-nitrophenyl)-5-phenyltetrazolium chloride] | blue to bluish purple | approximately 410 nm | almost the same number or more of colonies were detected
2 | COc1cc([N+](=O)[O-])ccc1-n1nc(-c2ccccc2)n[n+]1-c1ccc([N+](=O)[O-])cc1.[Cl-] [tetrazolium compound B, 2-(2-Methoxy-4-nitrophenyl)-3-(4-nitrophenyl)-5-phenyltetrazolium chloride] | blue to bluish purple | approximately 410 nm | the colonies were detected in the same number as in or more than
